Target: T1, Monoamineoxidase B type human-derived enzyme (Homo sapiens, UniProt P27338)
T1 sequence (P27338 1-520): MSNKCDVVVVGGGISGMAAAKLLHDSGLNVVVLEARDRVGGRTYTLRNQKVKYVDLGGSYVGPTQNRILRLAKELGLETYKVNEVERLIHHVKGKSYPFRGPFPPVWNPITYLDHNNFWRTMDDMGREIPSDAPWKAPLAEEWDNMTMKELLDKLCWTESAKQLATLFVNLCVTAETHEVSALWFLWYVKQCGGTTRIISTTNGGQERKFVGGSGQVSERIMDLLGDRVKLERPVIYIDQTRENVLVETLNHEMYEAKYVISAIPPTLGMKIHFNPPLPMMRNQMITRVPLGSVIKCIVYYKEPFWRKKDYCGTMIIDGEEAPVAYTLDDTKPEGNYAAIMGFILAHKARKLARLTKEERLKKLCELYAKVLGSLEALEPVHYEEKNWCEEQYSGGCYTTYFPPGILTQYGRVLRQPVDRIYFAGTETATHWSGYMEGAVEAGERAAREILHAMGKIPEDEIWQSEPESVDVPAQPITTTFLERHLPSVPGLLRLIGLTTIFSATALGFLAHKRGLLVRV
Assay: Inhibitory effects on the activity of MAO-B (Amplex Red fluorescence, benzylamine substrate)
Format: biochemical
Settings: treatment concentration 10 nM; read-out: Inhibitory effects (%) on the activity of MAO-B
Protocol: Monoamineoxidase A or B type human-derived enzyme (5 mg/ml) was each diluted with 0.05 M sodium phosphate buffer (pH 7.4) to yield a dilution of 1:200, and then 100 μl of an enzyme buffer containing 2 μl of a compound 1 solution at the corresponding concentration was placed in a test plate (flat-bottom) and incubated for 30 minutes.
100 μl of a working buffer containing 400 μM of Amplex Red reagent, 2 U/ml horseradish peroxidase, and 2 mM substrate (tyramine for MAO-A and benzylamine for MAO-B) in 0.05 M sodium phosphate buffer (pH 7.4) was mixed with a pre-incubated enzyme buffer at 1:1 and measured using fluorescence (EX: 563 nm & EM: 587 nm) for 30 minutes.

inhibition at 0.01 µM	Compound
74.5%	NC(=O)OCc1cc(-c2ccc(NCc3cccc(F)c3F)cc2)no1 [Example 80, Carbamic acid 3-[4-(2,3-difluoro-benzylamino)-phenyl]-isoxazol-5-ylmethyl ester]
56.5%	NC(=O)OCc1cc(-c2ccc(NCc3cc(F)cc(F)c3)cc2)no1 [Example 82, Carbamic acid 3-[4-(3,5-difluoro-benzylamino)-phenyl]-isoxazol-5-ylmethyl ester]
54.9%	NC(=O)OCc1cc(-c2ccc(NCc3cc(F)ccc3F)cc2)no1 [Example 83, Carbamic acid 3-[4-(2,5-difluoro-benzylamino)-phenyl]-isoxazol-5-ylmethyl ester]
50.1%	NC(=O)OCc1cc(-c2ccc(NCc3ccc(Cl)cc3)cc2)no1 [Example 85, Carbamic acid 3-[4-(4-chloro-benzylamino)-phenyl]-isoxazol-5-ylmethyl ester]
83.3%	NC(=O)OCc1cc(-c2ccc(NCc3ccccc3Cl)cc2)no1 [Example 86, Carbamic acid 3-[4-(2-chloro-benzylamino)-phenyl]-isoxazol-5-ylmethyl ester]
78.6%	NC(=O)OCc1cc(-c2ccc(NCc3cccc(Cl)c3)cc2)no1 [Example 87, Carbamic acid 3-[4-(3-chloro-benzylamino)-phenyl]-isoxazol-5-ylmethyl ester]
60%	NC(=O)OCc1cc(-c2ccc(NCc3cccc(Cl)c3Cl)cc2)no1 [Example 88, carbamic acid 3-[4-(2,3-dichloro-benzylamino)-phenyl]-isoxazol-5-ylmethyl ester]
54.7%	NC(=O)OCc1cc(-c2ccc(NCc3ccc(Cl)cc3Cl)cc2)no1 [Example 89, carbamic acid 3-[4-(2,4-dichloro-benzylamino)-phenyl]-isoxazol-5-ylmethyl ester]
20.3%	NC(=O)OCc1cc(-c2ccc(NCc3cc(Cl)ccc3Cl)cc2)no1 [Example 90, carbamic acid 3-[4-(2,5-dichloro-benzylamino)-phenyl]-isoxazol-5-ylmethyl ester]
73.1%	NC(=O)OCc1cc(-c2ccc(NCc3c(Cl)cccc3Cl)cc2)no1 [Example 91, carbamic acid 3-[4-(2,6-dichloro-benzylamino)-phenyl]-isoxazol-5-ylmethyl ester]
75.2%	NC(=O)OCc1cc(-c2ccc(NCc3ccc(Cl)c(Cl)c3)cc2)no1 [Example 92, carbamic acid 3-[4-(3,4-dichloro-benzylamino)-phenyl]-isoxazol-5-ylmethyl ester]
24.1%	NC(=O)OCc1cc(-c2ccc(NCc3cc(Cl)cc(Cl)c3)cc2)no1 [Example 93, carbamic acid 3-[4-(3,5-dichloro-benzylamino)-phenyl]-isoxazol-5-ylmethyl ester]
24.3%	NC(=O)OCc1cc(-c2ccc(NCc3c(Cl)ccc(Cl)c3Cl)cc2)no1 [Example 95, carbamic acid 3-[4-(2,3,6-trichloro-benzylamino)-phenyl]-isoxazol-5-ylmethyl ester]
40.9%	NC(=O)OCc1cc(-c2ccc(NCc3cccc(C(F)(F)F)c3)cc2)no1 [Example 96, Carbamic acid 3-[4-(3-trifluoromethyl-benzylamino)-phenyl]-isoxazol-5-ylmethyl ester]
79.7%	Cc1ccccc1CNc1ccc(-c2cc(COC(N)=O)on2)cc1 [Example 99, Carbamic acid 3-[4-(2-methyl-benzylamino)-phenyl]-isoxazol-5-ylmethyl ester]
23.7%	Cc1ccc(CNc2ccc(-c3cc(COC(N)=O)on3)cc2)cc1 [Example 100, Carbamic acid 3-[4-(4-methyl-benzylamino)-phenyl]-isoxazol-5-ylmethyl ester]
20.7%	Cc1ccc(CNc2ccc(-c3cc(COC(N)=O)on3)cc2)c(C)c1 [Example 103, Carbamic acid 3-[4-(2,4-dimethyl-benzylamino)-phenyl]-isoxazol-5-ylmethyl ester]
53.7%	COc1cccc(CNc2ccc(-c3cc(COC(N)=O)on3)cc2)c1 [Example 105, Carbamic acid 3-[4-(3-methoxy-benzylamino)-phenyl]-isoxazol-5-ylmethyl ester]
26%	Cc1noc(C)c1CNc1ccc(-c2cc(COC(N)=O)on2)cc1 [Example 112, carbamic acid 3-{4-[(3,5-dimethyl-isoxazol-4-ylmethyl)-amino]-phenyl}-isoxazol-5-ylmethyl ester]
68.5%	CC(OC(N)=O)c1cc(-c2ccc(OCc3ccccc3)cc2)no1 (stereo not drawn) [Example 117, carbamic acid 1-[3-(4-benzyloxy-phenyl)-isoxazol-5-yl]-ethyl ester]

inhibition at 0.01 µM	Compound
25.7%	NC(=O)OCCc1cc(-c2ccc(OCc3ccccc3)cc2)no1 [Example 118, carbamic acid 2-[3-(4-benzyloxy-phenyl)-isoxazol-5-yl]-ethyl ester]
81.7%	C#CCNCc1cc(-c2ccc(OCc3ccccc3)cc2)no1 [Example 119, [3-(4-benzyloxy-phenyl)-isoxazol-5-ylmethyl]-prop-2-ynyl-amine]
65.8%	O=C(OCc1cc(-c2ccc(OCc3ccccc3)cc2)no1)N1CCCC1 [Example 125, pyrrolidine-1-carboxylic acid 3-(4-benzyloxy-phenyl)-isoxazol-5-ylmethyl ester]
48.7%	O=C(OCc1cc(-c2ccc(OCc3ccccc3)cc2)no1)N1CCCCC1 [Example 126, piperidine-1-carboxylic acid 3-(4-benzyloxy-phenyl)-isoxazol-5-ylmethyl ester]
22%	CN(C)NC(=O)OCc1cc(-c2ccc(OCc3ccccc3)cc2)no1 [Example 129, N′,N′-dimethyl-hydrazinecarboxylic acid 3-(4-benzyloxy-phenyl)-isoxazol-5-ylmethyl ester]
43.5%	OC1CCN(Cc2cc(-c3ccc(OCc4ccccc4)cc3)no2)CC1 [Example 137, 1-[3-(4-benzyloxy-phenyl)-isoxazol-5-ylmethyl]-piperidin-4-ol]
39.1%	NC(=O)OC1CCN(Cc2cc(-c3ccc(OCc4ccccc4)cc3)no2)CC1 [Example 138, Carbamic acid 1-[3-(4-benzyloxy-phenyl)-isoxazol-5-ylmethyl]-piperidin-4-yl ester]
84.6%	c1ccc(COc2ccc(-c3cc(Cn4ccnc4)on3)cc2)cc1 [Example 139, 3-(4-benzyloxy-phenyl)-5-imidazol-1-ylmethyl-isoxazole]
91.7%	Cc1nccn1Cc1cc(-c2ccc(OCc3ccccc3)cc2)no1 [Example 140, 3-(4-benzyloxy-phenyl)-5-(2-methyl-imidazol-1-ylmethyl)-isoxazole]
97.3%	c1ccc(COc2ccc(-c3cc(Cn4cncn4)on3)cc2)cc1 [Example 144, 1-[3-(4-benzyloxy-phenyl)-isoxazol-5-ylmethyl]-1H-[1,2,4]triazole]
39.2%	c1ccc(COc2ccc(-c3cc(Cn4ccnn4)on3)cc2)cc1 [Example 145, 1-[3-(4-benzyloxy-phenyl)-isoxazol-5-ylmethyl]-1H-[1,2,3]triazole]
86%	c1ccc(COc2ccc(-c3cc(Cn4ncnn4)on3)cc2)cc1 [Example 146, 2-[3-(4-benzyloxy-phenyl)-isoxazol-5-ylmethyl]-2H-tetrazole]
97.4%	CN(C)Cc1cc(-c2ccc(OCc3ccccc3)cc2)no1 [Example 150, [3-(4-benzyloxy-phenyl)-isoxazol-5-ylmethyl]-dimethyl-amine]
96.8%	CCN(CC)Cc1cc(-c2ccc(OCc3ccccc3)cc2)no1 [Example 151, [3-(4-benzyloxy-phenyl)-isoxazol-5-ylmethyl]-diethyl-amine]
82.7%	Fc1ccc(COc2ccc(-c3cc(Cn4ccnc4)on3)cc2)c(F)c1 [Example 154, 3-[4-(2,4-difluoro-benzyloxy)-phenyl]-5-imidazol-1-ylmethyl-isoxazole]
70.7%	Fc1cc(F)c(COc2ccc(-c3cc(Cn4ccnc4)on3)cc2)c(F)c1 [Example 155, 5-imidazol-1-ylmethyl-3-[4-(2,4,6-trifluoro-benzyloxy)-phenyl]-isoxazole]
74.5%	Fc1ccc(COc2ccc(-c3cc(Cn4ccnc4)on3)cc2)cc1 [Example 156, 3-[4-(4-fluoro-benzyloxy)-phenyl]-5-imidazol-1-ylmethyl-isoxazole]
37.2%	Clc1ccc(COc2ccc(-c3cc(Cn4ccnc4)on3)cc2)cc1 [Example 157, 3-[4-(4-chloro-benzyloxy)-phenyl]-5-imidazol-1-ylmethyl-isoxazole]
21.8%	NC(=O)C(CO)NCc1cc(-c2ccc(OCc3ccccc3)cc2)no1 (stereo not drawn) [Example 167, 2-{[3-(4-benzyloxy-phenyl)-isoxazol-5-ylmethyl]-amino}-3-hydroxy-propionamide]
